Numbered stars: 1 amine (or outer) side, 2 acyl side, 3 side chain; on linkers, the order of the positions; unused ones are H or OH. Side chains are listed from the residue outwards. Peptide text beside a SMILES is read from it. * marks the point of attachment. γGlu = O=C(O)[C@H](CCC(=O)[*:2])N[*:1]; Palmitoyl = CCCCCCCCCCCCCCCC(=O)*; Ahx = NCCCCCC(=O)O; βAla = NCCC(=O)O
Assays:
Assay in all cases: cAMP activity assay in assay medium (assay 1)
Format in all cases: cell-based
Human GlucR = target: T1, Human GlucR (Homo sapiens, UniProt P47871); details: assay medium; Table 4; read-out: hGlucR EC50
T1 construct: expressed in transfected cells
T1 sequence (P47871 26-477): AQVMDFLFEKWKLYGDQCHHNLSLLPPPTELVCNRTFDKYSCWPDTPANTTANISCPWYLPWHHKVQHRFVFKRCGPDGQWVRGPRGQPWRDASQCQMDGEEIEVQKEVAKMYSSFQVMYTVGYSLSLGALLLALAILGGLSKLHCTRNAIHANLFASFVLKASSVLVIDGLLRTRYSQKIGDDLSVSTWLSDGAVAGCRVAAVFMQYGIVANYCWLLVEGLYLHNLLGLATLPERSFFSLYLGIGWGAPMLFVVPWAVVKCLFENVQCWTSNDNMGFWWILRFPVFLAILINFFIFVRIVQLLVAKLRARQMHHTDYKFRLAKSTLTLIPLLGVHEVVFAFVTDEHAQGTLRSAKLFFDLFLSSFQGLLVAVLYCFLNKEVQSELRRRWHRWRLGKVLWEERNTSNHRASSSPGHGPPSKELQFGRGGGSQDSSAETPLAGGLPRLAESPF
Excerpt: (§1) Biological Activity of Peptides in Cell-Based cAMP Activity Assay (Assay 1):
(§2) All sample dilutions were made in duplicate.

Human GIPr = target: T2, Human GIPr (Homo sapiens, UniProt P48546); details: assay medium; Table 4; read-out: hGIPR EC50
T2 construct: expressed in transfected cells
T2 sequence (P48546 22-466): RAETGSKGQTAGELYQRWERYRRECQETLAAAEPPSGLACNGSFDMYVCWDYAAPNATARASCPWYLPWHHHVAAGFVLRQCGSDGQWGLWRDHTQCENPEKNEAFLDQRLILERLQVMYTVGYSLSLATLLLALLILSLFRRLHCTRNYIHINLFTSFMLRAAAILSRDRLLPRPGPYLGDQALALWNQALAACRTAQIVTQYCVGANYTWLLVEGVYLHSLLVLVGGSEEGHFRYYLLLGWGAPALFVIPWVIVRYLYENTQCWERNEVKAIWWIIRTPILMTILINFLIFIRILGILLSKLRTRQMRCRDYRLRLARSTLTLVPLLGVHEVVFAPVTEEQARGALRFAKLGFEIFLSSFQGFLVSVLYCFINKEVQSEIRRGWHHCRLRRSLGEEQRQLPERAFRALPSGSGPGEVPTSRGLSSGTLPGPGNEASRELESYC
Excerpt: as §1, §2

Human GLP1R = Human GLP1R (Homo sapiens, UniProt P43220); design: expressed in transfected cells; details: assay medium; Table 4; read-out: hGLP1R EC50
Human GLP1R, sequence (P43220 24-463): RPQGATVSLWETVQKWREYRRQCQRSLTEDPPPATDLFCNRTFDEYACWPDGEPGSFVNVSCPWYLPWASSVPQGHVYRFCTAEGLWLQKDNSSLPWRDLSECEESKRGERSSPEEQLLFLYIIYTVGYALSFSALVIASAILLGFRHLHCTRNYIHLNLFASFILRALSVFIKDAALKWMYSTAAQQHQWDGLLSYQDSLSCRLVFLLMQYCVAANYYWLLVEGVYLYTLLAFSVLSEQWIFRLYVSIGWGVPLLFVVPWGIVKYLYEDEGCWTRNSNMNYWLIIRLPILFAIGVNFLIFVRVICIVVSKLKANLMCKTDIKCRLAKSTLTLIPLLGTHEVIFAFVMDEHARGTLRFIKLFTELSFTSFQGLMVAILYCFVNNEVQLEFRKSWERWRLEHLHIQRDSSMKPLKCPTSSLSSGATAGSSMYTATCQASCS
Excerpt: as §1, §2

SMILES	EC50 (Human GlucR) [pM]	EC50 (Human GIPr) [nM]	EC50 (Human GLP1R) [nM]
CCCCCCCCCCCCCCCC(=O)NCCCCCC(=O)NCCCC[C@H](NC(=O)[C@H](CO)NC(=O)[C@H](CC(=O)O)NC(=O)[C@H](CC(C)C)NC(=O)[C@H](Cc1ccc(O)cc1)NC(=O)[C@H](CCC(=O)O)NC(=O)[C@H](CO)NC(=O)[C@H](Cc1ccc(O)cc1)NC(=O)[C@H](CC(=O)O)NC(=O)[C@H](CO)NC(=O)[C@@H](NC(=O)[C@H](Cc1ccccc1)NC(=O)[C@@H](NC(=O)CNC(=O)[C@H](CCC(N)=O)NC(=O)[C@H](CO)NC(=O)[C@@H](N)Cc1c[nH]cn1)[C@@H](C)O)[C@@H](C)O)C(=O)N[C@@H](CCCNC(=N)N)C(=O)N[C@@H](C)C(=O)N[C@@H](CCCNC(=N)N)C(=O)N[C@@H](CC(=O)O)C(=O)N[C@@H](Cc1ccccc1)C(=O)N[C@H](C(=O)N[C@@H](CCC(=O)O)C(=O)N[C@@H](Cc1c[nH]c2ccccc12)C(=O)N[C@@H](CC(C)C)C(=O)N[C@@H](CCC(=O)O)C(=O)N[C@@H](CCCNC(=N)N)C(=O)NCC(=O)NCC(N)=O)C(C)C [g771] (H-HSQGTFTSDYSEYLDSK([Ahx-Palmitoyl])RARDFVEWLERGG-NH2; N-terminus assumed)	5.51	37.1	0.0175
CCCCCCCCCCCCCCCC(=O)N[C@@H](CCC(=O)NCCCC[C@H](NC(=O)[C@H](Cc1ccc(O)cc1)NC(=O)[C@H](CCCCN)NC(=O)[C@H](CO)NC(=O)[C@H](Cc1ccc(O)cc1)NC(=O)[C@H](CC(=O)O)NC(=O)[C@H](CO)NC(=O)[C@@H](NC(=O)[C@H](Cc1ccccc1)NC(=O)[C@@H](NC(=O)CNC(=O)[C@H](CCC(N)=O)NC(=O)[C@H](CO)NC(=O)[C@@H](N)Cc1c[nH]cn1)[C@@H](C)O)[C@@H](C)O)C(=O)N[C@@H](CC(=O)O)C(=O)N[C@@H](CO)C(=O)N[C@@H](CCCNC(=N)N)C(=O)N[C@@H](CO)C(=O)N[C@@H](C)C(=O)N[C@@H](CCC(N)=O)C(=O)N[C@@H](CC(=O)O)C(=O)N[C@@H](Cc1ccccc1)C(=O)N[C@H](C(=O)N[C@@H](CCC(N)=O)C(=O)N[C@@H](Cc1c[nH]c2ccccc12)C(=O)N[C@@H](CC(C)C)C(=O)N[C@H](C(=O)N[C@@H](C)C(=O)NCC(=O)NCC(N)=O)C(C)C)C(C)C)C(=O)O [g670] (H-HSQGTFTSDYSKYK([γGlu-Palmitoyl])DSRSAQDFVQWLVAGG-NH2; N-terminus assumed)	8	14.9	0.0203
CCCCCCCCCCCCCCCC(=O)N[C@@H](CCC(=O)NCCCC[C@H](NC(=O)[C@H](CO)NC(=O)[C@H](CC(=O)O)NC(=O)[C@H](CC(C)C)NC(=O)[C@H](Cc1ccc(O)cc1)NC(=O)[C@H](CCC(=O)O)NC(=O)[C@H](CO)NC(=O)[C@H](Cc1ccc(O)cc1)NC(=O)[C@H](CC(=O)O)NC(=O)[C@H](CO)NC(=O)[C@@H](NC(=O)[C@H](Cc1ccccc1)NC(=O)[C@@H](NC(=O)CNC(=O)[C@H](CCC(N)=O)NC(=O)[C@H](CO)NC(=O)[C@@H](N)Cc1c[nH]cn1)[C@@H](C)O)[C@@H](C)O)C(=O)N[C@@H](CCCNC(=N)N)C(=O)N[C@@H](C)C(=O)N[C@@H](CCCNC(=N)N)C(=O)N[C@@H](CC(=O)O)C(=O)N[C@@H](Cc1ccccc1)C(=O)N[C@H](C(=O)N[C@@H](CCC(=O)O)C(=O)N[C@@H](Cc1c[nH]c2ccccc12)C(=O)N[C@@H](CC(C)C)C(=O)N[C@H](C(=O)N[C@@H](C)C(=O)NCC(=O)NCC(N)=O)C(C)C)C(C)C)C(=O)O [g835] (H-HSQGTFTSDYSEYLDSK([γGlu-Palmitoyl])RARDFVEWLVAGG-NH2; N-terminus assumed)	424	97.2	0.191
CCCCCCCCCCCCCCCC(=O)NCCCCCC(=O)NCCCC[C@H](NC(=O)[C@H](CO)NC(=O)[C@H](CC(=O)O)NC(=O)[C@H](CC(C)C)NC(=O)[C@H](Cc1ccc(O)cc1)NC(=O)[C@H](CCC(=O)O)NC(=O)[C@H](CO)NC(=O)[C@H](Cc1ccc(O)cc1)NC(=O)[C@H](CC(=O)O)NC(=O)[C@H](CO)NC(=O)[C@@H](NC(=O)[C@H](Cc1ccccc1)NC(=O)[C@@H](NC(=O)CNC(=O)[C@H](CCC(N)=O)NC(=O)[C@H](CO)NC(=O)[C@@H](N)Cc1c[nH]cn1)[C@@H](C)O)[C@@H](C)O)C(=O)N[C@@H](CCCNC(=N)N)C(=O)N[C@@H](C)C(=O)N[C@@H](CCCNC(=N)N)C(=O)N[C@@H](CC(=O)O)C(=O)N[C@@H](Cc1ccccc1)C(=O)N[C@H](C(=O)N[C@@H](C)C(=O)N[C@@H](Cc1c[nH]c2ccccc12)C(=O)N[C@@H](CC(C)C)C(=O)N[C@@H](CCC(=O)O)C(=O)N[C@@H](CCCNC(=N)N)C(=O)NCC(=O)NCC(N)=O)C(C)C [g794] (H-HSQGTFTSDYSEYLDSK([Ahx-Palmitoyl])RARDFVAWLERGG-NH2; N-terminus assumed)	4.69	32.2	0.0157
CCCCCCCCCCCCCCCC(=O)NCCC(=O)NCCCC[C@H](NC(=O)[C@H](CO)NC(=O)[C@H](CC(=O)O)NC(=O)[C@H](CC(C)C)NC(=O)[C@H](Cc1ccc(O)cc1)NC(=O)[C@H](CCCCN)NC(=O)[C@H](CO)NC(=O)[C@H](Cc1ccc(O)cc1)NC(=O)[C@H](CC(=O)O)NC(=O)[C@H](CO)NC(=O)[C@@H](NC(=O)[C@H](Cc1ccccc1)NC(=O)[C@@H](NC(=O)CNC(=O)[C@H](CCC(N)=O)NC(=O)[C@H](CO)NC(=O)[C@@H](N)Cc1c[nH]cn1)[C@@H](C)O)[C@@H](C)O)C(=O)N[C@@H](CCCNC(=N)N)C(=O)N[C@@H](C)C(=O)N[C@@H](CCCNC(=N)N)C(=O)N[C@@H](CC(=O)O)C(=O)N[C@@H](Cc1ccccc1)C(=O)N[C@H](C(=O)N[C@@H](C)C(=O)N[C@@H](Cc1c[nH]c2ccccc12)C(=O)N[C@@H](CC(C)C)C(=O)N[C@@H](CCC(=O)O)C(=O)N[C@@H](C)C(=O)NCC(=O)NCC(N)=O)C(C)C [g819] (H-HSQGTFTSDYSKYLDSK([βAla-Palmitoyl])RARDFVAWLEAGG-NH2; N-terminus assumed)	2.34	103	0.018
CCCCCCCCCCCCCCCC(=O)N[C@@H](CCC(=O)NCCCC[C@H](NC(=O)[C@H](Cc1ccc(O)cc1)NC(=O)[C@H](CCCCN)NC(=O)[C@H](CO)NC(=O)[C@H](Cc1ccc(O)cc1)NC(=O)[C@H](CC(=O)O)NC(=O)[C@H](CO)NC(=O)[C@@H](NC(=O)[C@H](Cc1ccccc1)NC(=O)[C@@H](NC(=O)CNC(=O)[C@H](CCC(N)=O)NC(=O)[C@H](CO)NC(=O)[C@@H](N)Cc1c[nH]cn1)[C@@H](C)O)[C@@H](C)O)C(=O)N[C@@H](CC(=O)O)C(=O)N[C@@H](CO)C(=O)N[C@@H](CCCNC(=N)N)C(=O)N[C@@H](CO)C(=O)N[C@@H](C)C(=O)N[C@@H](CCCNC(=N)N)C(=O)N[C@@H](CC(=O)O)C(=O)N[C@@H](Cc1ccccc1)C(=O)N[C@H](C(=O)N[C@@H](CCC(=O)O)C(=O)N[C@@H](Cc1c[nH]c2ccccc12)C(=O)N[C@@H](CC(C)C)C(=O)N[C@H](C(=O)N[C@@H](C)C(=O)NCC(=O)NCC(N)=O)C(C)C)C(C)C)C(=O)O [g803] (H-HSQGTFTSDYSKYK([γGlu-Palmitoyl])DSRSARDFVEWLVAGG-NH2; N-terminus assumed)	10.8	32.9	0.0296
CCCCCCCCCCCCCCCC(=O)N[C@@H](CCC(=O)NCCCC[C@H](NC(=O)[C@H](CO)NC(=O)[C@H](CC(=O)O)NC(=O)[C@H](CC(C)C)NC(=O)[C@H](Cc1ccc(O)cc1)NC(=O)[C@H](CCCCN)NC(=O)[C@H](CO)NC(=O)[C@H](Cc1ccc(O)cc1)NC(=O)[C@H](CC(=O)O)NC(=O)[C@H](CO)NC(=O)[C@@H](NC(=O)[C@H](Cc1ccccc1)NC(=O)[C@@H](NC(=O)CNC(=O)[C@H](CCC(=O)O)NC(=O)[C@H](CO)NC(=O)[C@@H](N)Cc1c[nH]cn1)[C@@H](C)O)[C@@H](C)O)C(=O)N[C@@H](CCCNC(=N)N)C(=O)N[C@@H](C)C(=O)N[C@@H](CCC(N)=O)C(=O)N[C@@H](CC(=O)O)C(=O)N[C@@H](Cc1ccccc1)C(=O)N[C@H](C(=O)N[C@@H](CCC(N)=O)C(=O)N[C@@H](Cc1c[nH]c2ccccc12)C(=O)N[C@@H](CC(C)C)C(=O)N[C@@H](CCC(=O)O)C(=O)N[C@@H](C)C(=O)NCC(=O)NCC(N)=O)C(C)C)C(=O)O [g513] (H-HSEGTFTSDYSKYLDSK([γGlu-Palmitoyl])RAQDFVQWLEAGG-NH2; N-terminus assumed)	723	298	0.175
CCCCCCCCCCCCCCCC(=O)NCCCCCC(=O)NCCCC[C@H](NC(=O)[C@H](CO)NC(=O)[C@H](CC(=O)O)NC(=O)[C@H](CC(C)C)NC(=O)[C@H](Cc1ccc(O)cc1)NC(=O)[C@H](CCC(=O)O)NC(=O)[C@H](CO)NC(=O)[C@H](Cc1ccc(O)cc1)NC(=O)[C@H](CC(=O)O)NC(=O)[C@H](CO)NC(=O)[C@@H](NC(=O)[C@H](Cc1ccccc1)NC(=O)[C@@H](NC(=O)CNC(=O)[C@H](CCC(=O)O)NC(=O)CNC(=O)[C@@H](N)Cc1c[nH]cn1)[C@@H](C)O)[C@@H](C)O)C(=O)N[C@@H](CCCNC(=N)N)C(=O)N[C@@H](C)C(=O)N[C@@H](CCCNC(=N)N)C(=O)N[C@@H](CC(=O)O)C(=O)N[C@@H](Cc1ccccc1)C(=O)N[C@H](C(=O)N[C@@H](C)C(=O)N[C@@H](Cc1c[nH]c2ccccc12)C(=O)N[C@@H](CC(C)C)C(=O)N[C@@H](CCC(=O)O)C(=O)N[C@@H](CCCNC(=N)N)C(=O)NCC(=O)NCC(N)=O)C(C)C [g724] (H-HGEGTFTSDYSEYLDSK([Ahx-Palmitoyl])RARDFVAWLERGG-NH2; N-terminus assumed)	30900	933	0.019

From patent publication US20200354426A1 (MEDIMMUNE LIMITED, priority 2016, published 2020)
